# Literature values in patent US8926084B2, “Polymerizable ink composition, ink cartridge containing the same, and inkjet printer” (Ricoh Company, Ltd., priority 2012, dated 2015).
# Where two headings read alike, the source gives them in different places.
# Conditions: material evaluated as no skin sensitization or negative in MSDS has an SI value less than 3, cited from earlier work
SMILES,skin sensitization as mentioned in MSDS (listed as triethylene glycol divinyl ether),skin sensitization as mentioned in MSDS
C=COCCOCCOCCOC=C [Triethylene glycol divinylether],free from skin sensitization,–
"C=CC(=O)OCC(CC)(COC(=O)C=C)COC(=O)C=C [Trimethylol propane triacrylate (M-309), Trimethylol propane triacrylate]",–,"Toagosei Company, Limited, skin sensitization causing"
